Experimental data taken from publication PMC1919488 (Nucleic Acids Research, 2007).
Numbering of substitutions follows the chain as printed. Like-named read-outs stand apart in the source and are kept apart here.

What was measured:
[1] = target: T1, Rad51 (Saccharomyces cerevisiae, UniProt P25454, K191A); assay: biochemical
T1 sequence (P25454 1-400 K191A): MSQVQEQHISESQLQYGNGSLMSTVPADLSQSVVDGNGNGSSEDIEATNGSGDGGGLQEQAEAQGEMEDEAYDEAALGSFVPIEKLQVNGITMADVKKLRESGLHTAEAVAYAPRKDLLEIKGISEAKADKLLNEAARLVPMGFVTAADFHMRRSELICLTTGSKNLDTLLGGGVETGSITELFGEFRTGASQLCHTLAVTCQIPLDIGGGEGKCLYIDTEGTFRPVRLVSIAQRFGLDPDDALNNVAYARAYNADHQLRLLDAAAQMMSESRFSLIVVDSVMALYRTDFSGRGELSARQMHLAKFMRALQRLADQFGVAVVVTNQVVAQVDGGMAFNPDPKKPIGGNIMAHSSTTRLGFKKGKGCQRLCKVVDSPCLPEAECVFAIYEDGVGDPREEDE

[2] = target: T2, Rad51 (Saccharomyces cerevisiae, UniProt P25454, K191R); assay: biochemical
T2 sequence (P25454 1-400 K191R): T1 sequence (P25454 1-400 K191A) with A191R

[3] = target: T3, Rad51 (Saccharomyces cerevisiae, UniProt P25454); assay: biochemical
T3 sequence (P25454 1-400): T1 sequence (P25454 1-400 K191A) with A191K

[4] = target: T3, Rad51; assay type: binding
[5] = target: T2, Rad51; assay type: binding
[6] = target: T1, Rad51; assay type: binding

Kd [1] [µM]	Kd [2] [µM]	Kd [3] [µM]	SMILES	Kd [4] [µM]	Kd [5] [µM]	Kd [6] [µM]
34.2 ± 25.8	52.5 ± 18.2	8.8 ± 4.5	Nc1ncnc2c1ncn2[C@@H]1O[C@H](COP(=O)(O)OP(=O)(O)OP(=O)(O)O)[C@@H](O)[C@H]1O [ATP]	–	–	–
–	–	–	[N-]=[N+]=Nc1nc2c(N)ncnc2n1[C@@H]1O[C@H](COP(=O)(O)OP(=O)(O)OP(=O)(O)O)[C@@H](O)[C@H]1O [8-Azido-ATP]	10.2 ± 5.1	26.9 ± 10.3	73.7 ± 35.6
